Assay results taken from ChEMBL document CHEMBL4420076, “Amylin and calcitonin receptor agonist” (2017).
Numbered stars: 1 amine (or outer) side, 2 acyl side, 3 side chain; on linkers, the order of the positions; unused ones are H or OH. Peptide text beside a SMILES is read from it. * marks the point of attachment. C20 diacid = O=C(O)CCCCCCCCCCCCCCCCCCC(=O)*; C18 diacid = O=C(O)CCCCCCCCCCCCCCCCC(=O)*; γGlu = O=C(O)[C@H](CCC(=O)[*:2])N[*:1]

Legend:
Rattus norvegicus [1] = experiment: Reduction in food intake in Sprague-Dawley rat at 3 nmol/kg measured 0 to 24 hrs post dose relative to control; type: functional; parameters: scale not given: the % may be the effect or the level left
[2] = Solubility in 100 mM bistrispropane buffer at pH 6.0 incubated for 18 hrs by UPLC analysis; type: physicochemical
Calcitonin receptor [3] = molecular target: T1, Calcitonin receptor (Homo sapiens, UniProt P30988); experiment: Agonist activity at human calcitonin receptor expressed in BHK570 cells assessed as increase in intracellular cAMP concentration incubated for 3 hrs in presence of 10% FBS by CRE luciferase reporter gene assay; type: functional, cell-based
T1 sequence (P30988 whole entry): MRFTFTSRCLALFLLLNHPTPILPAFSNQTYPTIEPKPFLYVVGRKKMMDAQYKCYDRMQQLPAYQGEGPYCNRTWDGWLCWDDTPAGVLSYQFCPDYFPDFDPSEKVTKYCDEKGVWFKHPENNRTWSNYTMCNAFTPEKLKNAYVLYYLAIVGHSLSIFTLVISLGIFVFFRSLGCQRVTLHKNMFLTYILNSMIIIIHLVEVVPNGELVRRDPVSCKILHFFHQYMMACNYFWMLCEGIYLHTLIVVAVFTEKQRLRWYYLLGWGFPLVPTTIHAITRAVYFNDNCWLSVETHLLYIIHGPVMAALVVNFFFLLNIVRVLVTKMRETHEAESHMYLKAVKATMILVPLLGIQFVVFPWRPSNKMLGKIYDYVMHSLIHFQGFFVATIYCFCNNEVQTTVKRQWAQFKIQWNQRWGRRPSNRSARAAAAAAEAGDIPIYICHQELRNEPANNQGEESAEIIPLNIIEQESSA

Calcitonin receptor [4] = molecular target: T1, Calcitonin receptor; experiment: Agonist activity at human calcitonin receptor expressed in BHK570 cells assessed as increase in intracellular cAMP concentration incubated for 3 hrs in absence of albumin by CRE luciferase reporter gene assay; type: functional, cell-based
Rattus norvegicus [5] = experiment: Reduction in food intake in Sprague-Dawley rat at 3 nmol/kg measured 24 to 48 hrs post dose relative to control; type: functional; parameters: scale not given: the % may be the effect or the level left
[6] = Solubility in 100 mM glycylglycine buffer at pH 4.0 incubated for 18 hrs by UPLC analysis; type: physicochemical
[7] = Solubility in 100 mM bistrispropane buffer at pH 7.0 incubated for 18 hrs by UPLC analysis; type: physicochemical
[8] = molecular target: T2, Amylin receptor AMY3; CALCR/RAMP3 (Homo sapiens, UniProt O60896+P30988); experiment: Displacement of [125I]-labeled rat amylin from human amylin receptor expressed in BHK tkts13 whole cells co-expressing RAMP3 incubated for 60 mins by scintillation proximity assay; type: cell-based
T2 sequence (P30988 whole entry): T1 sequence (P30988 whole entry)
T2 sequence (O60896 whole entry): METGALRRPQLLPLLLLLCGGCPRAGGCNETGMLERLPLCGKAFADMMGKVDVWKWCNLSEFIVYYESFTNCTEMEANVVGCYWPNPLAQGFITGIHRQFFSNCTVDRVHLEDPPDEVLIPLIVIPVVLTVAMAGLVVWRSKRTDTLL

[9] = Solubility in 100 mM bistrispropane buffer at pH 7.5 incubated for 18 hrs by UPLC analysis; type: physicochemical
[10] = molecular target: T2, Amylin receptor AMY3; CALCR/RAMP3; experiment: Agonist activity at human amylin receptor expressed in BHK570 cells co-expressing RAMP3 assessed as increase in intracellular cAMP concentration incubated for 3 hrs in absence of albumin by CRE luciferase reporter gene assay; type: functional, cell-based
[11] = Solubility in 100 mM bistrispropane buffer at pH 8.0 incubated for 18 hrs by UPLC analysis; type: physicochemical
[12] = Solubility in 100 mM bistrispropane buffer at pH 6.5 incubated for 18 hrs by UPLC analysis; type: physicochemical
[13] = Solubility in 100 mM glycylglycine buffer at pH 5.0 incubated for 18 hrs by UPLC analysis; type: physicochemical
[14] = molecular target: T2, Amylin receptor AMY3; CALCR/RAMP3; experiment: Agonist activity at human amylin receptor expressed in BHK570 cells co-expressing RAMP3 assessed as increase in intracellular cAMP concentration incubated for 3 hrs in presence of 10% FBS by CRE luciferase reporter gene assay; type: functional, cell-based
[15] = Solubility in 100 mM glycylglycine buffer at pH 3.0 incubated for 18 hrs by UPLC analysis; type: physicochemical

solubility at 18 h [2]	EC50 (Calcitonin receptor [3])	EC50 (Calcitonin receptor [4])	solubility at 18 h [6]	solubility at 18 h [7]	IC50 [8]	solubility at 18 h [9]	EC50 [10]	solubility at 18 h [11]	solubility at 18 h [12]	solubility at 18 h [13]	EC50 [14]	solubility at 18 h [15]	SMILES	Activity (Rattus norvegicus [1])	Activity (Rattus norvegicus [5])
≥ 200 µM	0.019 nM	0.006 nM	≥ 200 µM	≥ 200 µM	0.187 nM	≥ 200 µM	0.009 nM	≥ 200 µM	≥ 200 µM	≥ 200 µM	0.039 nM	≥ 200 µM	CC(C)C[C@H](NC(=O)[C@H](C)NC(=O)[C@H](C)NC(=O)[C@@H](NC(=O)[C@H](CO)NC(=O)[C@H](CC(C)C)NC(=O)[C@H](CCC(=O)O)NC(=O)[C@H](CO)NC(=O)[C@H](C)NC(=O)[C@H](CCC(=O)O)NC(=O)CCCCCCCCCCCCCCCCC(=O)O)[C@@H](C)O)C(=O)NCC(=O)N[C@@H](CCCNC(=N)N)C(=O)N[C@@H](CC(C)C)C(=O)N[C@@H](CO)C(=O)N[C@@H](C)C(=O)N[C@@H](CCC(=O)O)C(=O)N[C@@H](CC(C)C)C(=O)N[C@@H](Cc1cnc[nH]1)C(=O)N[C@@H](CCC(=O)O)C(=O)N[C@@H](CC(C)C)C(=O)N[C@@H](C)C(=O)N[C@H](C(=O)N[C@@H](CC(C)C)C(=O)N1CCC[C@H]1C(=O)N[C@@H](CCCNC(=N)N)C(=O)N[C@H](C(=O)N[C@@H](CCC(=O)O)C(=O)N[C@H](C(=O)NCC(=O)N[C@@H](CO)C(=O)NCC(=O)N[C@@H](CO)C(=O)N1CCC[C@H]1C(N)=O)[C@@H](C)O)[C@@H](C)O)[C@@H](C)O ({C18 diacid}-EASELSTAALGRLSAELHELATLPRTETGSGSP-NH2)	71%	46%
≥ 200 µM	–	0.007 nM	≥ 200 µM	≥ 200 µM	0.375 nM	≥ 200 µM	0.008 nM	≥ 200 µM	≥ 200 µM	≥ 200 µM	–	≥ 200 µM	CC(C)C[C@H](NC(=O)[C@H](CCC(=O)O)NC(=O)[C@H](Cc1cnc[nH]1)NC(=O)[C@H](CC(C)C)NC(=O)[C@H](CCC(=O)O)NC(=O)[C@H](C)NC(=O)[C@H](CO)NC(=O)[C@H](CC(C)C)NC(=O)[C@H](CCCNC(=N)N)NC(=O)CNC(=O)[C@H](CC(C)C)NC(=O)[C@@H](NC(=O)[C@H](C)NC(=O)[C@@H](NC(=O)[C@H](CO)NC(=O)[C@H](CC(C)C)NC(=O)[C@H](CCC(=O)O)NC(=O)[C@H](CO)NC(=O)[C@@H]1CCCN1C(=O)[C@H](CCC(=O)O)NC(=O)CCCCCCCCCCCCCCCCC(=O)O)[C@@H](C)O)C(C)C)C(=O)N[C@@H](C)C(=O)N[C@H](C(=O)N[C@@H](CC(C)C)C(=O)N1CCC[C@H]1C(=O)N[C@@H](CCCNC(=N)N)C(=O)N[C@H](C(=O)N[C@@H](CCC(=O)O)C(=O)N[C@H](C(=O)NCC(=O)N1CCC[C@H]1C(=O)N[C@@H](CCC(=O)O)C(=O)N[C@@H](CO)C(=O)N1CCC[C@H]1C(N)=O)[C@@H](C)O)[C@@H](C)O)[C@@H](C)O ({C18 diacid}-EPSELSTAVLGRLSAELHELATLPRTETGPESP-NH2)	84%	77%
≥ 200 µM	0.057 nM	0.021 nM	–	≥ 200 µM	–	≥ 200 µM	0.036 nM	≥ 200 µM	≥ 200 µM	–	0.159 nM	≥ 200 µM	CC(C)C[C@H](NC(=O)CNC(=O)[C@H](CO)NC(=O)[C@H](C)NC(=O)CC[C@H](NC(=O)CCCCCCCCCCCCCCCCCCC(=O)O)C(=O)O)C(=O)N[C@@H](CO)C(=O)N[C@H](C(=O)N[C@@H](C)C(=O)N[C@@H](C)C(=O)N[C@@H](CC(C)C)C(=O)NCC(=O)N[C@@H](CCCNC(=N)N)C(=O)N[C@@H](CC(C)C)C(=O)N[C@@H](CO)C(=O)N[C@@H](CCC(=O)O)C(=O)N[C@@H](CCC(=O)O)C(=O)N[C@@H](CC(C)C)C(=O)N[C@@H](Cc1cnc[nH]1)C(=O)N[C@@H](CCC(=O)O)C(=O)N[C@@H](CC(C)C)C(=O)N[C@@H](CCC(N)=O)C(=O)N[C@H](C(=O)N[C@@H](Cc1ccc(O)cc1)C(=O)N1CCC[C@H]1C(=O)N[C@@H](CCCNC(=N)N)C(=O)N[C@H](C(=O)N[C@@H](CCC(=O)O)C(=O)N[C@H](C(=O)NCC(=O)N[C@@H](CO)C(=O)NCC(=O)N[C@H](C(=O)N[C@@H](Cc1ccc(O)cc1)C(N)=O)[C@@H](C)O)[C@@H](C)O)[C@@H](C)O)[C@@H](C)O)[C@@H](C)O ({C20 diacid-γGlu}-ASGLSTAALGRLSEELHELQTYPRTETGSGTY-NH2)	21%	6%
–	–	–	≥ 200 µM	–	2.56 nM	–	0.025 nM	–	–	–	0.565 nM	≥ 200 µM	CC(C)C[C@H](NC(=O)CNC(=O)[C@H](CO)NC(=O)[C@H](CC(C)C)NC(=O)[C@H](CCC(=O)O)NC(=O)CC[C@H](NC(=O)CCCCCCCCCCCCCCCCCCC(=O)O)C(=O)O)C(=O)N[C@@H](CO)C(=O)N[C@H](C(=O)N[C@@H](CC(C)C)C(=O)N[C@H](C(=O)N[C@@H](CC(C)C)C(=O)NCC(=O)N[C@@H](CCCNC(=N)N)C(=O)N[C@@H](CC(C)C)C(=O)N[C@@H](CO)C(=O)N[C@@H](CCC(N)=O)C(=O)N[C@@H](CCC(=O)O)C(=O)N[C@@H](CC(C)C)C(=O)N[C@@H](Cc1cnc[nH]1)C(=O)N[C@@H](CCC(=O)O)C(=O)N[C@@H](CC(C)C)C(=O)N[C@@H](CCC(N)=O)C(=O)N[C@H](C(=O)N[C@@H](Cc1ccc(O)cc1)C(=O)N1CCC[C@H]1C(=O)N[C@@H](CCCNC(=N)N)C(=O)N[C@H](C(=O)NCC(=O)N[C@H](C(=O)NCC(=O)N[C@@H](CO)C(=O)NCC(=O)N[C@H](C(=O)N[C@@H](Cc1ccc(O)cc1)C(N)=O)[C@@H](C)O)[C@@H](C)O)[C@@H](C)O)[C@@H](C)O)C(C)C)[C@@H](C)O ({C20 diacid-γGlu}-ELSGLSTLVLGRLSQELHELQTYPRTGTGSGTY-NH2)	32%	0%
≥ 200 µM	0.026 nM	0.009 nM	≥ 200 µM	≥ 200 µM	0.24 nM	≥ 200 µM	0.011 nM	≥ 200 µM	≥ 200 µM	≥ 200 µM	0.061 nM	≥ 200 µM	CC(C)C[C@H](NC(=O)[C@H](C)NC(=O)[C@H](C)NC(=O)[C@@H](NC(=O)[C@H](CO)NC(=O)[C@H](CC(C)C)NC(=O)[C@H](CCC(=O)O)NC(=O)[C@H](CO)NC(=O)[C@H](C)NC(=O)[C@H](CCC(=O)O)NC(=O)CCCCCCCCCCCCCCCCCCC(=O)O)[C@@H](C)O)C(=O)NCC(=O)N[C@@H](CCCNC(=N)N)C(=O)N[C@@H](CC(C)C)C(=O)N[C@@H](CO)C(=O)N[C@@H](C)C(=O)N[C@@H](CCC(=O)O)C(=O)N[C@@H](CC(C)C)C(=O)N[C@@H](Cc1cnc[nH]1)C(=O)N[C@@H](CCC(=O)O)C(=O)N[C@@H](CC(C)C)C(=O)N[C@@H](C)C(=O)N[C@H](C(=O)N[C@@H](CC(C)C)C(=O)N1CCC[C@H]1C(=O)N[C@@H](CCCNC(=N)N)C(=O)N[C@H](C(=O)N[C@@H](CCC(=O)O)C(=O)N[C@H](C(=O)NCC(=O)N[C@@H](CO)C(=O)NCC(=O)N[C@@H](CO)C(=O)N1CCC[C@H]1C(N)=O)[C@@H](C)O)[C@@H](C)O)[C@@H](C)O ({C20 diacid}-EASELSTAALGRLSAELHELATLPRTETGSGSP-NH2)	55.5%	63.5%
